Reference: patent US20210246109A1, “POTENT AND SELECTIVE INHIBITORS OF CYTOCHROME P450” (University of Kentucky Research Foundation, priority 2020, published 2021)
Where “and” joins values, the source holds several entries; their conditions need not be identical. Equal entries are not always repeated. Where two headings read alike, the source gives them in different places.

What was measured:
[1] = tested on: HEK; experiment: Cytotoxicity, resazurin, 72 hours after compound addition; assay type: cell-based
Procedure: Cytotoxicity was assessed at 72 hours after compound addition using resazurin. The compounds that function as selective 1B1 inhibitors had no effect on cell health. This is an essential feature for any chemopreventative agent or molecules intended to block the detrimental action of an enzyme.

[2] = molecular target: T1, CYP1B1 (Homo sapiens, UniProt Q16678); experiment: EROD assay in inducible CYP1B1 cell line; assay type: cell-based
T1 construct: expressed in transfected cells
T1 sequence (Q16678 1-543): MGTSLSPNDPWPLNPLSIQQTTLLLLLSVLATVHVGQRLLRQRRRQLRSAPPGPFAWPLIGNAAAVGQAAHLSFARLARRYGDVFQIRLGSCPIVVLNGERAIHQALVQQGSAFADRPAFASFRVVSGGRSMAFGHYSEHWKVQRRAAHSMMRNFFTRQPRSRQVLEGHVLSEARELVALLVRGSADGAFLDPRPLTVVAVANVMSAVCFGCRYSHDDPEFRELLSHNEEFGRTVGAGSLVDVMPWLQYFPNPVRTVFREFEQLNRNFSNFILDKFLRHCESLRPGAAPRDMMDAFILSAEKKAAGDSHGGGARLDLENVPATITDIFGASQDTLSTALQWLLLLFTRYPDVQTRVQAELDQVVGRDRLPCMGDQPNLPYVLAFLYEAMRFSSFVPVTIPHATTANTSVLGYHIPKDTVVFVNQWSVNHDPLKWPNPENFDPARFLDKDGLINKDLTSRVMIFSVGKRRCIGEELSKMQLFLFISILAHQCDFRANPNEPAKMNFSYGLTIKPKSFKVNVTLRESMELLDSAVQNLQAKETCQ
Procedure: (§1) The activity of the inhibitors was assessed in a novel cell based assay generated for the purpose of this project. Enzymatic turnover of CYP1B1 was measured using the ethoxy-resorufin-O-deethylase (EROD) assay with the fluorescent substrate, resorufin ethyl ether. Cell lines were generated where the gene for CYP1B1 alone or CYP1B1 and cytochrome P450 reductase (CPR) were both under the control of an inducible promoter. A cell line was generated for counter screening where the gene for CYP1A1 was used. CYP1A1 is the closest family member to CYP1B1.

[3] = molecular target: T2, CYP1A1 (Homo sapiens, UniProt P04798); experiment: EROD assay in CYP1A1 counter-screen cell line; assay type: cell-based; details: for SI 1B1:1A1: selectivity index
T2 construct: expressed in transfected cells
T2 sequence (P04798 1-512): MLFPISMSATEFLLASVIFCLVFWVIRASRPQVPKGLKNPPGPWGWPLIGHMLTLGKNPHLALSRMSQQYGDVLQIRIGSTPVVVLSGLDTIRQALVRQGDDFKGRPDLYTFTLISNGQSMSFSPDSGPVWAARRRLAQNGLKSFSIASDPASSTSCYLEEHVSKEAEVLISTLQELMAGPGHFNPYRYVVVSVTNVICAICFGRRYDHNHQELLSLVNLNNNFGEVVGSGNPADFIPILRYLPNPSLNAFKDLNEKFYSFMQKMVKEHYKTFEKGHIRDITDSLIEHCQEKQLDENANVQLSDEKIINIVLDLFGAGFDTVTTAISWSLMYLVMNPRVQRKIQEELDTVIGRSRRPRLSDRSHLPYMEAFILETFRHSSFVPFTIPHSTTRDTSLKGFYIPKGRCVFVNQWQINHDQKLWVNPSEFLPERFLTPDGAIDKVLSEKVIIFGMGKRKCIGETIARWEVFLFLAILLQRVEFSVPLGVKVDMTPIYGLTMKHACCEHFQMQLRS
Procedure: as §1

[4] = molecular target: T3, pooled human liver microsomes (pHLMs) (Homo sapiens, UniProt P05177); experiment: EROD counterscreen in pooled human liver microsomes; assay type: biochemical; details: human, microsomes, Table 3; read-out: IC50 pHLM
T3 sequence (P05177 2-516): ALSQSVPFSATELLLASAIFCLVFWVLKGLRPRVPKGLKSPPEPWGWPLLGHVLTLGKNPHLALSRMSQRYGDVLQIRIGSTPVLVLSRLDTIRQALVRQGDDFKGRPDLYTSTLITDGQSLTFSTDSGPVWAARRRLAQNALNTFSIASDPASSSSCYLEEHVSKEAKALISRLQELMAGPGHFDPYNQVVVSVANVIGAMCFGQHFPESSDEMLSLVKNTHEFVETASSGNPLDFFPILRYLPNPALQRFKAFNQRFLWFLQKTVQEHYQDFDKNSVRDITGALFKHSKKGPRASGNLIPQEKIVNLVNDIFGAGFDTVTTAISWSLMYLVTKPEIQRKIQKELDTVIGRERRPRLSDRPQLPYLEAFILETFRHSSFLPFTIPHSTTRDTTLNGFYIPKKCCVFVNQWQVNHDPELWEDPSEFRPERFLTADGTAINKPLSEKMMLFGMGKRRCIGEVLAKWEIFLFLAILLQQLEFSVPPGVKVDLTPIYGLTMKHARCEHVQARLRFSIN
Description: Human liver microsomes were used as a counterscreen to experimentally determine the magnitude of inhibitor selectivity.

[5] = Table 1, 72 hours, resazurin, read-out: Cytotoxicity IC50
[6] = Table 3, HEK, read-out: HEK cytotoxicity
[7] = Table 2, EROD assay, read-out: IC50 CYP1A1
[8] = Table 2, EROD assay, read-out: IC50 CYP1B1

IC50 ([3]; Table 3, read-out: IC50 1A1)	IC50 ([2]; Table 3, read-out: IC50 1B1)	SMILES	other results
		O=c1cc(-c2ccccc2)oc2c1ccc1ccccc12 [ANF, reference compound]	IC50 [1, 5]: > 10 µM; IC50 [1, 6]: > 10 µM
		COc1ccc(/C=C/c2ccccc2)c(OC)c1 [Compound 1]	activity as CYP1B1 inhibitor, in words [2]: poor activity
		COc1ccc(/C=C/c2ccncc2)c(OC)c1 [Compound 6]	activity as CYP1B1 inhibitor, in words [2]: potent
		COc1ccc(/C=C/c2cc[n+](C)cn2)c(OC)c1 [Compound 7]	activity as CYP1B1 inhibitor, in words [2]: poor activity
		N#CCOc1ccc(/C=C/c2ccncn2)cc1 [Compound 13]	activity as CYP1B1 inhibitor, in words [2]: potent
> 10000 nM	13900 nM	COc1ccc(/C=C/c2cc[n+](C)cn2)c(OC)c1.[I-] [GL461]	HEK cell viability % at 10 μM ([1]; Table 3, HEK): 103%
4460 nM and > 10000 nM		COc1ccc(/C=C/c2ccccc2)c(OC)c1 [GL469]	IC50 [4]: 6 µM; HEK cell viability % at 10 μM ([1]; Table 3, HEK): 124.2%
5500 nM and 3500 nM		N#CCOc1ccc(-c2nc3ccccc3[nH]2)cc1 [GL509]	IC50 [4]: 8.36 µM; HEK cell viability % at 10 μM ([1]; Table 3, HEK): 75%
	2440 nM	O=c1[nH]c(-c2ccccn2)nc2ccccc12 [GL518]	
> 10000 nM	970 nM	COc1ccc(-c2nc3ccccc3c(=O)n2CC#N)c(OC)c1 [GL519]	HEK cell viability % at 10 μM ([1]; Table 3, HEK): 88.7%
1230 nM and 1180 nM	0.51 nM and 1.3 nM	COc1cc(OCC#N)ccc1-c1nc2ccccc2c(=O)[nH]1 [GL521]	IC50 [4]: > 10 µM
> 10000 nM		N#CCOc1ccc(-c2nc3ccccc3[nH]2)cc1 [GL523]	HEK cell viability % at 10 μM ([1]; Table 3, HEK): 93.4%
> 10000 nM	51 nM	N#CCOc1ccc(/C=N/c2ccccc2C(N)=O)cc1 [GL542]	
4400 nM		N#CCOc1ccc(-c2nc3ccccc3c(=O)[nH]2)c(OCC#N)c1 [GL545]	
3500 nM	20.4 nM	N#CCOc1ccc(-c2nc3ccccc3c(=O)[nH]2)cc1OCC#N [GL546]	
560 nM	< 0.25 nM	COc1cc(-c2nc3ccc(I)cc3c(=O)[nH]2)ccc1OCC#N [GL551]	IC50 [4]: > 3 µM
> 10000 nM	1.8 nM	COc1cc(-c2nc3ccc(C#Cc4ccccc4)cc3c(=O)[nH]2)ccc1OCC#N [GL552]	
4760 nM	3.8 nM	COc1ccc(-c2nc3ccccc3c(=O)[nH]2)cc1 [GL553]	
3330 nM	3.5 nM	COc1ccc(-c2nc(OCC#N)c3ccccc3n2)cc1 [GL554]	
2590 nM	6.7 nM	COc1ccc(-c2nc(OC)c3ccccc3n2)cc1 [GL556]	
1720 nM	< 0.7 nM	COc1cc(-c2nc(OCC#N)c3ccccc3n2)ccc1OCC#N [GL557]	
2460 nM	< 0.7 nM	COc1nc(-c2ccc(OCC#N)cc2)nc2ccccc12 [GL558]	
1940 nM	< 2.5 nM	N#CCOc1ccc(-c2nc(OCCCCCCBr)c3ccccc3n2)cc1 [GL564]	IC50 [4]: > 10 µM
1870 nM	< 2.5 nM	N#CCOc1ccc(-c2nc(OCCCCCCN=[N+]=[N-])c3ccccc3n2)cc1 [GL565]	IC50 [4]: > 10 µM
1280 nM	< 2.5 nM	CC(C)(C)OC(=O)NCCCOc1nc(-c2ccc(OCC#N)cc2)nc2ccccc12 [GL571]	IC50 [4]: > 10 µM
2120 nM	< 2.5 nM	N#CCOc1ccc(-c2nc(OCCCN)c3ccccc3n2)cc1 [GL572]	IC50 [4]: > 10 µM
1100 nM	9400 nM	O=C(NCCCOc1ccc(CCc2ccncn2)cc1)OCCOCCOCCOC(=O)NC12CC3CC(CC(C3)C1)C2 [GL594]	

IC50 ([3]; Table 3, read-out: IC50 1A1)	IC50 ([2]; Table 3, read-out: IC50 1B1)	SMILES	other results
	6.1 nM	[N-]=[N+]=NCCCOc1ccc(-c2nc3ccccc3c(=O)[nH]2)cc1 [GL627]	
	126 nM	N#CCOc1nc(-c2ccc(OCCCN=[N+]=[N-])cc2)nc2ccccc12 [GL628]	
		N#CCOc1ccc(-c2nc(-c3cccnc3)cs2)cc1 [GL641]	IC50 [3, 7]: 2610 nM; SI 1B1:1A1 [3]: 6833; IC50 [2, 8]: 0.381 nM
85 nM	22 nM	O=c1[nH]c(-c2ccc(Cl)cc2)nc2ccccc12 [GL642]	
125 nM	0.1 nM	N#CCOc1nc(-c2ccc(Cl)cc2)nc2ccccc12 [GL643]	
		N#Cc1ccc(-c2csc(-c3ccc(O)cc3)n2)cc1 [GL649]	IC50 [3, 7]: 16400 nM; SI 1B1:1A1 [3]: 17.6; IC50 [2, 8]: 931 nM
1100 nM	2.8 nM	O=c1[nH]c(-c2ccc3ccccc3n2)nc2ccccc12 [GL651]	
1860 nM	19 nM	N#CCOc1ccc(/C=C/c2ccc(COC#N)cc2COC#N)cc1 [GL652]	
		N#Cc1ccc(-c2csc(-c3cccnc3)n2)cc1 [GL656]	IC50 [2, 8]: 391 nM
> 10000 nM	> 1000 nM	Cn1c(-c2ccc3ccccc3n2)nc2ccccc2c1=O [GL659]	
		C#CCOc1ccc(-c2nc(-c3ccc(C#N)cc3)cs2)cc1 [GL664]	IC50 [3, 7]: 696 nM; SI 1B1:1A1 [3]: 3.44; IC50 [2, 8]: 202 nM
		Fc1ccc(-c2csc(-c3ccccn3)n2)cc1C(F)(F)F [GL666]	IC50 [3, 7]: 240 nM; SI 1B1:1A1 [3]: 2.86; IC50 [2, 8]: 83.8 nM
		COc1ccc(-c2nc(-c3ccc(O)cc3)cs2)c(OC)c1 [GL673]	IC50 [2, 8]: 101 nM
		Oc1ccc(-c2nc(-c3ccc(F)c(C(F)(F)F)c3)cs2)cc1 [GL678]	IC50 [3, 7]: 14700 nM; SI 1B1:1A1 [3]: 70.5; IC50 [2, 8]: 208 nM
2300 nM	41 nM	O=c1[nH]c(-c2ccc(F)c(C(F)(F)F)c2)nc2ccccc12 [GL-700]	
250 nM		N#CCOc1nc(-c2ccc(F)c(C(F)(F)F)c2)nc2ccccc12 [GL-701]	
320 nM	85 nM	Fc1ccc(-c2nc3ccccc3[nH]2)cc1C(F)(F)F [GL-706]	
760 nM	44 nM	c1ccc2nc(-c3nc4ccccc4[nH]3)ccc2c1 [GL-707]	
3000 nM	550 nM	COc1cc(C(=O)/C=C/c2ccc3ccccc3n2)cc(OC)c1OC [GL-713]	
5200 nM	1100 nM	COc1ccc(/C=C/C(=O)c2cc(OC)c(OC)c(OC)c2)c(OC)c1 [GL-714]	
3900 nM	1900 nM	Oc1nc(-c2ccc(F)cc2)nc2ccccc12 [GL-717]	
15 nM	850 nM	N#CCOc1nc(-c2ccc(F)cc2)nc2ccccc12 [GL-718]	
5200 nM	3000 nM	Fc1ccc(-c2nc3ccccc3[nH]2)cc1 [GL-719]	
	200 nM	O=c1[nH]c(-c2cccc(C(F)(F)F)c2)nc2ccccc12 [GL-728]	
50 nM		N#CCOc1nc(-c2cccc(C(F)(F)F)c2)nc2ccccc12 [GL-729]	
		COc1cc(/C=C/c2ccc(OC)cc2OC)cc(OC)c1 [TMS, reference compound]	IC50 [1, 5]: 10 µM; IC50 [1, 6]: > 10 µM; IC50 ([2]; Table 1, read-out: CYP1B1 IC50): 8.3 nM

SMILES	IC50 ([3]; Table 3, read-out: IC50 1A1)	IC50 ([2]; Table 3, read-out: IC50 1B1)	other results
N#CCOc1ccc(-c2nc(OCC#N)c3ccccc3n2)cc1 [GL- 561]	3600 nM		
